Measured values as given in patent publication US20210038607A1, “OXADIAZOLYLTHIOPHENE DERIVATIVES USEFUL AS HISTONE DEACETYLASE INHIBITORS” (Karus Therapeutics Limited, priority 2018, published 2021).

Assays:
Human HDAC1 = molecular target: T1, Human HDAC1 (Homo sapiens, UniProt Q13547); experiment: HDAC1 biochemical assay, AMC-labeled peptide substrate; details: read-out: HDAC Isoform IC50 (nM) 1
T1 construct: full length with C-terminal His-tag and C-terminal FLAG-tag; His (C); FLAG (C); host or cells: baculovirus expression system
T1 sequence (Q13547 whole entry, canonical isoform): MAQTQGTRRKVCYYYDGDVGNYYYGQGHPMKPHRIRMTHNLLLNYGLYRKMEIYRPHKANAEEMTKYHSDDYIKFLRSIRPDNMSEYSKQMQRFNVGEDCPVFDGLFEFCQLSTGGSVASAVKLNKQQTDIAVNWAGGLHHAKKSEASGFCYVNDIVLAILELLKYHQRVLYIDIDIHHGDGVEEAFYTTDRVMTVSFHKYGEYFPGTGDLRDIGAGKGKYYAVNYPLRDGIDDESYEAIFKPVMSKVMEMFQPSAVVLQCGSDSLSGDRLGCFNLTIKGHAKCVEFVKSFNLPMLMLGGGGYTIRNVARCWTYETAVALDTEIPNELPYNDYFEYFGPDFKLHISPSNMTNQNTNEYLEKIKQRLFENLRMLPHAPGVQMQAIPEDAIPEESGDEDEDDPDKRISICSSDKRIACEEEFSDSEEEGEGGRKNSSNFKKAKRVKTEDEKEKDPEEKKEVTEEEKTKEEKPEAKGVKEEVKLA
Method: (§1) Activity against all zinc-dependent HDACs 1 to 11 was assessed by using an acetylated AMC-labeled peptide substrate. The substrate RHKK(Ac)AMC was used for HDAC1, HDAC2, HDAC3, HDAC6 and HDAC10; the substrate used for HDAC8 was RHK(Ac)K(Ac)AMC. Activity against the class IIa HDACs (HDAC4, 5, 7, 9) and HDAC11 was determined using a class IIa-specific substrate, BOC-Lys(trifluoroacetyl)-AMC (“Trifluoroacetyl Lysine”; see Lahm et al, 2007, PNAS, 104, 17335-17340). All assays were based on the AMC-labeled substrate and developer combination.
(§2) The protocol involved a two-step reaction: first, the substrate with the acetylated lysine side chain is incubated with a sample containing HDAC activity, to produce the deacetylated products, which are then digested in the second step by the addition of developer to produce the fluorescent signal proportional to the amount of deacetylated substrates.
Human HDAC1 (GenBank Accession No. NM_004964), full length with C-terminal His-tag and C-terminal FLAG-tag, MW=56 kDa, expressed in baculovirus expression system.
(§3) Assay Buffer: 50 mM Tris-HCl, pH8.0, 137 mM NaCl, 2.7 mM KCl, 1 mM MgC2. Before use, 1 mg/mL BSA and DMSO are added.
HDAC1: 0.3 ng/ul HDAC1 and 50 μM HDAC substrate are in the reaction buffer with 1% DMSO final. Incubate for 1 hour at 30° C.
(§4) Stage 1: Deacetylation of substrate by incubation of HDAC enzymes with compounds
(§5) Stage 2: Development by addition of Developer to digest the deacetylated substrate, and generate the fluorescent colour; Detection: 360/460 Ex/Em

Human HDAC4 = molecular target: T2, Human HDAC4 (Homo sapiens, UniProt P56524); experiment: HDAC4 biochemical assay, class IIa-specific substrate; details: read-out: HDAC Isoform IC50 (nM) 4
T2 construct: amino acids 627-1085 with N-terminal GST tag; GST (N); host or cells: baculovirus expression system
T2 sequence (P56524 627-1084 limits assumed): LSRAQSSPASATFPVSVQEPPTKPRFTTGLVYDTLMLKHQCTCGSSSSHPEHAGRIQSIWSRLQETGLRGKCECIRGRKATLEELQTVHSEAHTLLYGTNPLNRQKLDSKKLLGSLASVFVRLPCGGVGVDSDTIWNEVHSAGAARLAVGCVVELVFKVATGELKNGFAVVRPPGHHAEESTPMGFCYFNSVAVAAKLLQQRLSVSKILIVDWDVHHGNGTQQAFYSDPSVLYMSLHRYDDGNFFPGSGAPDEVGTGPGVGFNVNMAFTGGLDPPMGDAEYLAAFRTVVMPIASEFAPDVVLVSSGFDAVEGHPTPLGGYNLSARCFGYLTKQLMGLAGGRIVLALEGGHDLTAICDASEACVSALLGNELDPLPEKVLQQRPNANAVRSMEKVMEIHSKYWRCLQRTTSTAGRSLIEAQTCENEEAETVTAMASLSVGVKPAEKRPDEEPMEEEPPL
Method: as §1, §2
Human HDAC4 (GenBank Accession No. NM_006037), amino acids 627-1085 with N-terminal GST tag, MW=75.2 kDa, expressed in baculovirus expression system.
as §3
(§6) For class IIa HDACs, assay buffer is the same.
HDAC4: 0.004 ng/ul HDAC4 and 50 μM Class IIa HDAC substrate are in the reaction buffer with 1% DMSO final. Incubate for 30 minutes at room temperature.
as §4, §5

Human HDAC5 = molecular target: T3, Human HDAC5 (Homo sapiens, UniProt Q9UQL6); experiment: HDAC5 biochemical assay, class IIa-specific substrate; details: read-out: HDAC Isoform IC50 (nM) 5
T3 construct: full length with C-terminal His tag, MW=51.1 kDa; His (C); host or cells: baculovirus expression system
T3 sequence (Q9UQL6 656-1122 limits assumed): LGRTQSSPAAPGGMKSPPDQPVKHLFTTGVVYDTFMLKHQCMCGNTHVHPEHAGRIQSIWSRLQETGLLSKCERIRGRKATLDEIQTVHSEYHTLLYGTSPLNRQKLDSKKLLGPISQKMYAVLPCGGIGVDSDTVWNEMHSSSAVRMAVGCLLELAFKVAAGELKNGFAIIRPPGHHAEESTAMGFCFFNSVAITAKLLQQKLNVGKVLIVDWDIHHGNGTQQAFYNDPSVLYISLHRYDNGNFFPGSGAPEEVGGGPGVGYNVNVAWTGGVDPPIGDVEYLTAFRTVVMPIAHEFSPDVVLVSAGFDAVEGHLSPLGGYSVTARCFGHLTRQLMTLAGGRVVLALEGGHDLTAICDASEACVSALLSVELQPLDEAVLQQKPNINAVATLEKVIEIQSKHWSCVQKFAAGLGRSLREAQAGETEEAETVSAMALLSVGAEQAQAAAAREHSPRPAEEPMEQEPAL
Method: as §1, §2
Human HDAC5 (GenBank Accession No. NM_005474), full length with C-terminal His tag, MW=51.1 kDa, expressed in baculovirus expression system.
as §3, §6
HDAC5: 0.05 ng/ul HDAC5 and 50 μM Class IIa HDAC substrate are in the reaction buffer with 1% DMSO final. Incubate for 30 minutes at room temperature.
as §4, §5

Recombinant human HDAC6 = molecular target: T4, Recombinant human HDAC6 (Homo sapiens, UniProt Q9UBN7); experiment: HDAC6 biochemical assay, AMC-labeled peptide substrate; details: HDAC6; read-out: HDAC Isoform IC50 (nM) 6
T4 construct: full length, MW=159 kDa; GST (N); host or cells: Sf9 insect cells (baculovirus)
T4 sequence (Q9UBN7 1-1215): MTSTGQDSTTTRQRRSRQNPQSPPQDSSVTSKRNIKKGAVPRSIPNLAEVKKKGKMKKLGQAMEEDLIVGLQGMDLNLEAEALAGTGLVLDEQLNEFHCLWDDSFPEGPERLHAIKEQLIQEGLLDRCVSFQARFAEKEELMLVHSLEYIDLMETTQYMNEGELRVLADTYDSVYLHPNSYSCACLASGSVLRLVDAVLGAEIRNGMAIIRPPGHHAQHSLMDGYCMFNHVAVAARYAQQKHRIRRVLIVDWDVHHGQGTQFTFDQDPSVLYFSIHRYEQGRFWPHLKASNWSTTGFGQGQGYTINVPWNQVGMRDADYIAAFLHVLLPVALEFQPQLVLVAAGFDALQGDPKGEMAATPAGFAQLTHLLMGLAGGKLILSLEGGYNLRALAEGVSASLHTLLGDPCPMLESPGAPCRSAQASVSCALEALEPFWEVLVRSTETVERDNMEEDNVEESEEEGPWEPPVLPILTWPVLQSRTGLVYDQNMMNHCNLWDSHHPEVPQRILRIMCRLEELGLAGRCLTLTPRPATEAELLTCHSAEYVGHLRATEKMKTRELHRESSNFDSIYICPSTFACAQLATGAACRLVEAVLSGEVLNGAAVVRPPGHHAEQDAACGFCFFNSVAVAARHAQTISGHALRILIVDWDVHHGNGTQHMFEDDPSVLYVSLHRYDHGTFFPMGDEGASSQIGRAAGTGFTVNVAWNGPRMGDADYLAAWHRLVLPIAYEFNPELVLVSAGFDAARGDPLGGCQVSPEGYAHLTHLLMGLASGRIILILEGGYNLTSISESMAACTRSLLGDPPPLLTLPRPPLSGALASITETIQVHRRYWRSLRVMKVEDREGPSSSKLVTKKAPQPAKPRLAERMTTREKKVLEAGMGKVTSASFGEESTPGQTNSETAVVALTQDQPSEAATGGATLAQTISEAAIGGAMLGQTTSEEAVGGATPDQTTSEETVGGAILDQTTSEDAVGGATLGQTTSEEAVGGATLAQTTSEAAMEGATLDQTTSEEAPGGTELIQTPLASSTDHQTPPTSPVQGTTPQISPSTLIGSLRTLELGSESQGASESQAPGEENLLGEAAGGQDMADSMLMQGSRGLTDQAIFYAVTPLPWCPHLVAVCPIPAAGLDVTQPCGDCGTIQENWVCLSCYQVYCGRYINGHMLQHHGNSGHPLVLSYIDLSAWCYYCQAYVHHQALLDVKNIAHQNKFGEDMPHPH
Method: as §1, §2
Recombinant human HDAC6 (GenBank Accession No. BC069243), full length, MW=159 kDa, was expressed by baculovirus in Sf9 insect cells using an N-terminal GST tag.
as §3
HDAC6: 0.3 ng/ul HDAC6 and 50 μM HDAC substrate are in the reaction buffer with 1% DMSO final. Incubate for 1 hours at 30° C.
as §4, §5

Human HDAC7 = molecular target: T5, Human HDAC7 (Homo sapiens, UniProt Q8WUI4); experiment: HDAC7 biochemical assay, class IIa-specific substrate; details: read-out: HDAC Isoform IC50 (nM) 7
T5 construct: (a.a. 518-end) with N-terminal GST tag; GST (N); host or cells: baculovirus expression system
T5 sequence (Q8WUI4 518-952 limits assumed): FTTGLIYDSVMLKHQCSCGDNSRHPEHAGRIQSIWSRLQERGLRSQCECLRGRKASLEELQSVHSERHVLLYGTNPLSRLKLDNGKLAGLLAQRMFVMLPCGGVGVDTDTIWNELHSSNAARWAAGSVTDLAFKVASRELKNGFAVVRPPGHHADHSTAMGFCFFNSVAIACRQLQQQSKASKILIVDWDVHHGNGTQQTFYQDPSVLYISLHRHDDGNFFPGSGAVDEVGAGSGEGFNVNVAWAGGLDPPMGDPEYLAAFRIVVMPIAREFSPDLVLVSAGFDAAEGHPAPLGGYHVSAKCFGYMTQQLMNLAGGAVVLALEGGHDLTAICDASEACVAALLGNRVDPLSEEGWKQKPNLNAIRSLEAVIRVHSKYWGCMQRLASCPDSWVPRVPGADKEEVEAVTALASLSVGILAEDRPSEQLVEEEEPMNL
Method: as §1, §2
Human HDAC7 (GenBank Accession No. AY302468), (a.a. 518-end) with N-terminal GST tag, MW=78 kDa, expressed in baculovirus expression system.
as §3, §6
HDAC7: 0.001 ng/ul HDAC7 and 50 μM Class IIa HDAC substrate are in the reaction buffer with 1% DMSO final. Incubate for 30 minutes at room temperature.
as §4, §5

Human HDAC9 = molecular target: T6, Human HDAC9 (Homo sapiens, UniProt Q9UKV0); experiment: HDAC9 biochemical assay, class IIa-specific substrate; details: read-out: HDAC Isoform IC50 (nM) 9
T6 construct: amino acids 604-1066 with C-terminal His tag; His (C); host or cells: baculovirus expression system
T6 sequence (Q9UKV0 604-1066 isoform Q9UKV0-5): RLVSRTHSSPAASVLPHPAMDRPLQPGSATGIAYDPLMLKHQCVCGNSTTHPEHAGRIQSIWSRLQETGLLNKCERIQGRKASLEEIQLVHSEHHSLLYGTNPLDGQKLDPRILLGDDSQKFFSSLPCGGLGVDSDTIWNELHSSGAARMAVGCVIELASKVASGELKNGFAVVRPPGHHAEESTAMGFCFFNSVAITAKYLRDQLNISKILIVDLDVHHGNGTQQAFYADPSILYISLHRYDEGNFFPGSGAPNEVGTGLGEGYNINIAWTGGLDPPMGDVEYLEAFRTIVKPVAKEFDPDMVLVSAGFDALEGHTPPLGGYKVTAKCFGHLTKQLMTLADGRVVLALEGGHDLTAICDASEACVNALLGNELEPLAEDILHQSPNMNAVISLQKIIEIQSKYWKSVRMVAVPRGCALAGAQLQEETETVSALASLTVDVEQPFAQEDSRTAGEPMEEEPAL
Method: as §1, §2
Human HDAC9 (GenBank Accession No. NM_178423), amino acids 604-1066 with C-terminal His tag, MW=50.7 kDa, expressed in baculovirus expression system.
as §3, §6
HDAC9: 0.06 ng/ul HDAC9 and 50 μM Class IIa HDAC substrate are in the reaction buffer with 1% DMSO final. Incubate for 30 minutes at room temperature.
as §4, §5

| Structure (SMILES) | IC50 (Human HDAC1) [nM] | IC50 (Human HDAC4) [nM] | IC50 (Human HDAC5) [nM] | IC50 (Recombinant human HDAC6) [nM] | IC50 (Human HDAC7) [nM] | IC50 (Human HDAC9) [nM] |
| --- | --- | --- | --- | --- | --- | --- |
| CS(=O)(=O)c1ncc(N(Cc2ccc(-c3noc(C(F)(F)F)n3)s2)c2cnccn2)cn1 [Example CW, 2-Methanesulfonyl-N-(pyrazin-2-yl)-N-({5-[5-(trifluoromethyl)-1,2,4-oxadiazol-3-yl]thiophen-2-yl}methyl)pyrimidin-5-amine] | > 10000 | ≤ 500 | ≤ 500 | ≤ 10000 | ≤ 500 | ≤ 10000 |
| CN(C)C(=O)c1cncc(N(Cc2ccc(-c3noc(C(F)(F)F)n3)s2)c2cnccn2)n1 [Example BS, N,N-Dimethyl-6-[(pyrazin-2-yl)({5-[5-(trifluoromethyl)-1,2,4-oxadiazol-3-yl]thiophen-2-yl}methyl)amino]pyrazine-2-carboxamide] | > 10000 | ≤ 10000 | ≤ 10000 | ≤ 10000 | ≤ 10000 | ≤ 10000 |
| FC(F)(F)c1nc(-c2ccc(CN(c3cnccn3)c3ccc(-c4ccccc4)nn3)s2)no1 [Example DN, 6-Phenyl-N-(pyrazin-2-yl)-N-({5-[5-(trifluoromethyl)-1,2,4-oxadiazol-3-yl]thiophen-2-yl}methyl)pyridazin-3-amine] | ≤ 10000 | ≤ 1000 | ≤ 500 | ≤ 500 | ≤ 500 | ≤ 10000 |
| FC(F)(F)c1nc(-c2ccc(CN(c3cnccn3)c3cccc(N4CCOCC4)n3)s2)no1 [Example W, N-[6-(Morpholin-4-yl)pyridin-2-yl]-N-({5-[5-(trifluoromethyl)-1,2,4-oxadiazol-3-yl]thiophen-2-yl}methyl)pyrazin-2-amine] | > 10000 | ≤ 10000 | ≤ 10000 | ≤ 10000 | ≤ 10000 | ≤ 10000 |
| FC(F)(F)c1cnnc(N(Cc2ccc(-c3noc(C(F)(F)F)n3)s2)c2cncnc2)c1 [Example EQ, N-(Pyrimidin-5-yl)-5-(trifluoromethyl)-N-({5-[5-(trifluoromethyl)-1,2,4-oxadiazol-3-yl]thiophen-2-yl}methyl)pyridazin-3-amine] | > 10000 | ≤ 10000 | ≤ 10000 | ≤ 1000 | ≤ 10000 | ≤ 10000 |
| FC(F)(F)c1nc(-c2ccc(CN(c3cnccn3)c3ccc4nccnc4n3)s2)no1 [Example Z, N-{Pyrido[2,3-b]pyrazin-6-yl}-N-({5-[5-(trifluoromethyl)-1,2,4-oxadiazol-3-yl]thiophen-2-yl}methyl)pyrazin-2-amine] | > 10000 | ≤ 1000 | ≤ 1000 | ≤ 1000 | ≤ 1000 | ≤ 10000 |
| Cc1ncc(N(Cc2ccc(-c3noc(C(F)(F)F)n3)s2)c2cnccn2)cn1 [Example CS, 2-Methyl-N-(pyrazin-2-yl)-N-({5-[5-(trifluoromethyl)-1,2,4-oxadiazol-3-yl]thiophen-2-yl}methyl)pyrimidin-5-amine] | ≤ 10000 | ≤ 500 | ≤ 1000 | ≤ 1000 | ≤ 500 | ≤ 10000 |
| FC(F)(F)c1nc(-c2ccc(CN(c3cnccn3)c3cnc4[nH]ccc4n3)s2)no1 [Example BN, N-{5H-Pyrrolo[2,3-b]pyrazin-2-yl}-N-({5-[5-(trifluoromethyl)-1,2,4-oxadiazol-3-yl]thiophen-2-yl}methyl)pyrazin-2-amine] | > 10000 | ≤ 500 | ≤ 500 | ≤ 1000 | ≤ 500 | ≤ 500 |
| FC(F)(F)c1nc(-c2ccc(CN(c3ccc(N4CCOCC4)cn3)c3cnccn3)s2)no1 [Example AD, N-[5-(Morpholin-4-yl)pyridin-2-yl]-N-({5-[5-(trifluoromethyl)-1,2,4-oxadiazol-3-yl]thiophen-2-yl}methyl)pyrazin-2-amine] | ≤ 10000 | ≤ 10000 | ≤ 10000 | ≤ 10000 | ≤ 10000 | ≤ 10000 |
